Measured values taken from article PMC5789092 (Scientific Reports, 2018).
Read-outs that look alike come from different tables or passages of the source.

Columns and labels:
[1] = test system: HUVEC (human umbilical vein endothelial cell); test: SRB cytotoxicity assay, HUVEC normal cells; assay type: cell-based; conditions: for IC50: Homo sapiens, HUVEC, 72 h, SRB, normal cell line
[2] = test system: PC-3 cells; test: Cell cycle analysis (PI staining, flow cytometry); assay type: cell-based, human; conditions: PC-3, 48 h
Method: The cultured cells were treated with these compounds at the indicated concentrations for 48 h, then harvested, and analyzed by flow cytometry. […] Each experiment was performed in triplicate.
The cell cycle arrest on PC-3 and HepG2 cells was detected with PI staining assay (Sigma) as described previously[19]. After treatment with samples at the set concentrations for 48 h, cells were centrifuged and fixed in 70% ethanol at 4 °C refrigerator 12 h and then resuspended in PBS (100 μL RNase A and 400 μL PI). Cellular DNA content was measured using a FACSCalibur flow cytometer with Modfit LT 3.0 software. Twenty thousand cells were collected per sample. Mean values are presented from three independent experiments.

[3] = test system: PC-3 (human prostate cancer); test: SRB cytotoxicity assay, PC-3; assay type: cell-based; conditions: 72 h
[4] = test system: PC-3 cells; test: Hoechst 33258 nuclear chromatin condensation, PC-3; assay type: cell-based, human; conditions: PC-3, 72 h; VP-16 0.5 and 1 μM; 1i 1, 2 and 4 μM
Method: (§1) Figure 10 Induction of apoptosis by active compound 1i and VP-16 at the indicated concentrations on PC-3 cells. (a) 72 h after the treatment of these compounds at the indicated concentrations, cells were fixed, washed with PBS, stained with Hoechst 33258, and analyzed for morphological characteristics associated with apoptosis by fluorescence microscopic analysis (×20). (b) Compound 1i triggered changes of pro-caspase 3 and PARP by Western blotting analysis. Cells were lysed after 72 h treatment with 1i at the concentration (1, 2 and 4 μM). The lysates were resolved on a 10% SDS-PAGE, transferred on to a nitrocellulose membrane and probed for cleaved caspase 3 and PARP. β-actin was used as a loading control.
Condensation of nuclear chromatin is usually the late apoptotic event and is detected by staining Hoechst 33258[43]. PC-3 cells containing 2.0 × 10^5 cells/well were cultured on coverslips, and kept in six-well plates for 12 h. After 72 h treatment with 1i and VP-16, Hoechst 33258 staining was carried out according to the kit’s procedure (Beyotime Institute Biotechnology, China). The cells were viewed under a fluorescence microscopy (Olympus BX53 + DP72) with a ×20 objective lens.

[5] = test system: CHO (Chinese hamster ovary); test: SRB cytotoxicity assay, CHO normal cells; assay type: cell-based; conditions: Cricetulus griseus, 72 h, normal cell line
Source text: (§2) All the synthesized derivatives of 1 and 2 were screened for their anticancer activities against four human cancer cell lines (HeLa, PC-3, HEp-2 and HepG2) and two normal cell lines (CHO and HUVEC) using the sulforhodamine B (SRB) assay.
(§3) PC-3 (human prostate cancer), HepG2 (human liver cancer) and CHO (Chinese hamster ovary) cell lines were obtained from Shanghai Institute of Biochemistry and Cell Biology, Chinese Academy of Sciences. HeLa (human cervix cancer), HUVEC (human umbilical vein endothelial cells) and HEp-2 (human laryngeal cancer) cell lines were granted by Prof. Lei of college of life sciences, Northwest A&F University. The six cell lines were grown in RPMI-1640 (Gibco) containing 10% (v/v) thermally inactivated fetal bovine serum (FBS), penicillin (100 KU/L) and streptomycin (100 KU/L) at 37 °C in a 5% CO2 humidified incubator.
(§4) In vitro cytotoxicity was assessed by using the SRB colorimetric assay refer to previous methods[19],[42].

[6] = test system: HEp-2 (human larynx epidermal cancer); test: SRB cytotoxicity assay, HEp-2; assay type: cell-based; conditions: 72 h, mean ± SD
Source text: as §2, §3, §4

[7] = test system: HepG2 cells; test: Hoechst 33258 nuclear morphology, HepG2; assay type: cell-based, human; conditions: HepG2, 72 h
Method: Figure S2. Induction of apoptosis by active compounds 1 and 1i at the indicated concentrations on HepG2 cells. 72 h after the treatment of these compounds at the indicated concentrations, cells were fixed, washed with PBS, stained with Hoechst 33258, and analyzed for morphological characteristics associated with apoptosis by fluorescence microscopic analysis (20×). NMR spectra

[8] = test system: pro-caspase 3 and PARP in PC-3 cells; test: Western blotting of pro-caspase 3 and PARP; assay type: cell-based, human; conditions: PC-3, 72 h, 1, 2 and 4 μM
Method: as §1
PC-3 cells were treated with the indicated concentrations (1, 2 and 4 µM) of 1i for 72 h, cell were collected and lysed. The protein concentration was measured by BCA method, and equal amount proteins were electrophoresed on 10% SDS-PAGE gel, electrotransferred onto NC membrane, and incubated with appropriate primary and secondary antibodies, protein blots were tested by ECL solution and ChemiDoc XRS+ imaging system (Bio-Rad, USA).

[9] = test system: HepG2 (human liver cancer); test: SRB cytotoxicity assay, HepG2; assay type: cell-based; conditions: 72 h
[10] = test system: HeLa (human cervix cancer); test: SRB cytotoxicity assay, HeLa; assay type: cell-based; conditions: 72 h, mean ± SD
[11] = test system: cancer cells; design: method as in PMID 24763364, PMID 27262408; conditions: ref [19],[33]; cited from earlier work
[12] = test system: canonical p50/p65 NF-κB signaling in PC-3 cells; test: NF-κB luciferase reporter assay, TNF-α-induced; assay type: cell-based, human; conditions: 10 μM, 8 h, TNF-α 50 ng/mL
Source text: The canonical NF-κB signaling pathway is a target for developing therapeutics for multiple human diseases, including cancer and chronic inflammatory diseases[46],[47]. Many STLs are known modulators of NF-κB signaling[7],[48]. In particular, two famous STLs parthenolide and helenalin have been certified to covalently target Cys38 of NF-κB p65 through hetero-Michael addition between exocyclic methylene butyrolactones and biological thiol of Cys38[49],[50]. […] To test the inhibition of active compound in NF-κB signaling, 1i and parthenolide (P, positive control) were screened for inhibitory activity toward canonical p50/p65 NF-κB signaling with a cellular luciferase assay (Fig. 12)[51]. […] The observation that 1i and P are comparably potent in this assay hints at the possibility that 1i may also have similar properties like 1β-hydroxy alantolactone and parthenolide in cells.
Figure 12 NF-κB-luciferase inhibition assay in PC-3 cells. PC-3 cells with a stably transfected NF-κB luciferase reporter were stimulated with TNF-α (50 ng/mL) (except for noninduced control, Non-Ind) and different dose of parthenolide (P) and 1i for 8 h. Normalized luminescence was plotted as NF-κB luciferase activity compared to control (%).
PC-3 cells (8000 cells/well) were placed in a 96-well plate and the cells were then transfected with pNF-κB-Luc expression plasmid reference to the method.

[13] = test system: HeLa (human cervix cancer); design: method as in Dong et al.[19]; conditions: footnote c; ref Dong et al.[19]; cited from earlier work
[14] = test system: CHO (Chinese hamster ovary); conditions: footnote c; ref Dong et al.[19]; cited from earlier work
[15] = test system: HEp-2 (human larynx epidermal cancer); conditions: footnote c; ref Dong et al.[19]; cited from earlier work
[16] = mean ± SD, read-out: IC50 HepG2

With `C=C1C(=O)O[C@@H]2C[C@@]3(C)C(=O)CC[C@H](C)C3=C[C@H]12` [1i, 1-carbonyl-alantolactone] the IC50 [1] was 8.8 ± 0.7 µM, the “selectivity index (IC50 on four cancer cells versus HUVEC cells)” value ([1]; comparison of IC50 between four cancer cells and HUVEC) was 2–3 and the “%G0/G1” value ([2]; 1.0 μM) was 50.5%. The “%G2/M” value ([2]; 1.0 μM) was 17.5%, the “%S” value ([2]; 1.0 μM) was 32.0% and the “%G0/G1” value ([2]; 2.0 μM) was 47.7%. The “%G2/M” value ([2]; 2.0 μM) was 18.5%, the “%S” value ([2]; 2.0 μM) was 33.8% and the “%G0/G1” value ([2]; 4.0 μM) was 44.6%. The “%G2/M” value ([2]; 4.0 μM) was 19.5%, the “%S” value ([2]; 4.0 μM) was 35.9% and the IC50 ([3]; mean ± SD, read-out: IC50 PC-3) was 2.5 ± 0.8 µM. The IC50 ([3]; read-out: IC50 PC-3 (Table 3, C13-methylene modified derivatives)) was over 40 µM, the “nuclear morphology (Hoechst 33258), apoptosis” value (“nuclear morphology” for short) [4] was “apoptotic tendency was apparent” and the IC50 [5] was 2.5 ± 0.2 µM. For the same molecule, the IC50 [6] was 3.5 ± 0.9 µM, the “nuclear morphology” value [7] was “Changes of nuclear morphology” and the “pro-caspase 3 and cleavage of PARP (Western blot)” value [8] was “significant dose-dependent decrease in pro-caspase 3 and the cleavage of its substrate PARP”. It also gave an IC50 [9, 16] of 5.1 ± 0.2 µM, an IC50 ([9]; read-out: IC50 HepG2 (Table 3, C13-methylene modified derivatives)) of over 40 µM and an IC50 [10] of 2.7 ± 0.1 µM.

For `C=C1C(=O)OC2CC(C)=C(C(C)CCCOC(C)=O)C(OC(=O)CCCCCCCCCCC)C12` (stereo not shown) [ABL-L, 1-O-acetyl-6-O-lauroylbritannilactone], the “fold stronger suppression against cancer cells compared with ABL” value [11] is given as 4–10 fold.

In the case of `C=C1C(=O)O[C@H]2[C@H]1CC/C(C)=C/CC[C@@]1(C)O[C@@H]21` [P, parthenolide, reference compound], the “%G0/G1” value ([2]; 4.0 μM) is reported as 46.2%, the “%G2/M” value ([2]; 4.0 μM) is reported as 18.2% and the “%S” value ([2]; 4.0 μM) is reported as 35.6%. It also gave an IC50 ([3]; mean ± SD, read-out: IC50 PC-3) of 3.4 ± 0.6 µM, an IC50 [5] of 5.3 ± 0.7 µM and an IC50 [6] of 6.8 ± 0.3 µM. For the same molecule, the “NF-κB luciferase activity compared to control” value [12] was 52.1% and the IC50 [10] was 7.6 ± 0.6 µM.

With `COc1cc([C@@H]2c3cc4c(cc3[C@@H](O[C@@H]3O[C@@H]5CO[C@@H](C)O[C@H]5[C@H](O)[C@H]3O)[C@H]3COC(=O)[C@H]23)OCO4)cc(OC)c1O` [VP-16, etoposide, reference compound] the IC50 [1] was 1.9 ± 0.2 µM, the “%G0/G1” value ([2]; 1.0 μM) was 28.1% and the “%G2/M” value ([2]; 1.0 μM) was 42.4%. For the same molecule, the “%S” value ([2]; 1.0 μM) was 29.5%, the IC50 ([3]; mean ± SD, read-out: IC50 PC-3) was 0.6 ± 0.1 µM and the IC50 [13] was 3 ± 0.3 µM. For the same molecule, the “nuclear morphology” value [4] was “fragmentation and condensation of chromatin”, the IC50 [14] was 2.6 ± 0.2 µM and the IC50 [15] was 4.8 ± 0.5 µM. For the same molecule, the IC50 [9, 16] was 7.6 ± 0.8 µM.
